Test results published in ChEMBL document CHEMBL5120880, “Peptidomimetics: An Overview of Recent Medicinal Chemistry Efforts toward the Discovery of Novel Small Molecule Inhibitors” (J Med Chem, 2022).
≈ marks a conversion by molar mass, not a printed value. Peptide text beside a SMILES is read from it.

Experiments:
Pseudomonas aeruginosa = experiment: Antimicrobial activity against Pseudomonas aeruginosa KCTC 1637 assessed as minimal inhibitory concentration incubated for 18 hrs; type: functional
Staphylococcus aureus [1] = experiment: Antimicrobial activity against Staphylococcus aureus KCTC 1621 assessed as minimal inhibitory concentration incubated for 18 hrs; type: functional
Escherichia coli [2] = experiment: Antimicrobial activity against Escherichia coli KCTC 1682 assessed as minimal inhibitory concentration incubated for 18 hrs; type: functional
[3] = system: Staphylococcus epidermidis; experiment: Antimicrobial activity against Staphylococcus epidermidis KCTC 1917 assessed as minimal inhibitory concentration incubated for 18 hrs; type: functional
Staphylococcus aureus [4] = experiment: Antibacterial activity against Staphylococcus aureus MRSA assessed as minimal inhibitory concentration incubated for 24 hrs; type: functional
Staphylococcus aureus [5] = experiment: Antibacterial activity against Staphylococcus aureus assessed as minimal inhibitory concentration incubated for 24 hrs; type: functional
Salmonella enterica = experiment: Antibacterial activity against Salmonella enterica assessed as minimal inhibitory concentration incubated for 24 hrs; type: functional
Escherichia coli [6] = experiment: Antibacterial activity against Escherichia coli assessed as minimal inhibitory concentration incubated for 24 hrs; type: functional
Bacillus subtilis [7] = experiment: Antibacterial activity against Bacillus subtilis assessed as minimal inhibitory concentration incubated for 72 hrs; type: functional
[8] = system: Middle East respiratory syndrome-related coronavirus; experiment: microbe, parasite or virus in culture
SARS-CoV-2 = experiment: microbe, parasite or virus in culture; settings: Severe acute respiratory syndrome coronavirus 2
[9] = system: Middle East respiratory syndrome-related coronavirus; experiment: Antiviral activity against MERS-CoV by cell based assay; type: functional, organism-based
[10] = system: Feline infectious peritonitis virus; experiment: microbe, parasite or virus in culture; settings: Alphacoronavirus 1
SARS-CoV = experiment: microbe, parasite or virus in culture; settings: Severe acute respiratory syndrome-related coronavirus
Murine hepatitis virus = experiment: microbe, parasite or virus in culture; settings: Murine coronavirus
Staphylococcus aureus [11] = experiment: Antibacterial activity against Staphylococcus aureus ATCC 29213 assessed as minimal inhibitory concentration; type: functional
Escherichia coli [12] = experiment: Antibacterial activity against Escherichia coli AG100 assessed as minimal inhibitory concentration; type: functional
Acinetobacter baumannii = experiment: Antibacterial activity against Acinetobacter baumannii ATCC BAA1605 assessed as minimal inhibitory concentration; type: functional
[13] = Inhibition of Acinetobacter baumannii […] assessed as measuring NADH consumption rate
Mycolicibacterium phlei = experiment: Antibacterial activity against Mycobacterium phlei DSM750 assessed as minimal inhibitory concentration by microdilution assay; type: functional
Salmonella typhimurium = experiment: Antibacterial activity against Salmonella typhimurium TA100 assessed as minimal inhibitory concentration by microdilution assay; type: functional, Salmonella enterica subsp. enterica serovar Typhimurium; settings: Salmonella enterica
Bacillus subtilis [14] = experiment: Antibacterial activity against Bacillus subtilis DSM10 assessed as minimal inhibitory concentration by microdilution assay; type: functional
Escherichia coli [15] = experiment: Antibacterial activity against Escherichia coli BW25113 assessed as minimal inhibitory concentration by microdilution assay; type: functional

Structure (SMILES): CC(=O)NCCNc1nc(NCC(N)=O)nc(N(CCCN)CCCN)n1
- MIC (Pseudomonas aeruginosa): 128 µg/mL (≈ 335 µM)
- MIC (Staphylococcus aureus [1]): > 128 µg/mL
- MIC (Escherichia coli [2]): 128 µg/mL (≈ 335 µM)
- MIC [3]: > 128 µg/mL

Structure (SMILES): C#Cc1cccc(NC(=O)[C@@H](N)CC(C)C)c1
- MIC (Staphylococcus aureus [4]): 31.2 µg/mL (≈ 135 µM)
- MIC (Staphylococcus aureus [5]): 10.6 µg/mL (≈ 46 µM)
- MIC (Salmonella enterica): 15.6 µg/mL (≈ 67.7 µM)
- MIC (Escherichia coli [6]): 10.6 µg/mL (≈ 46 µM)
- MIC (Bacillus subtilis [7]): 31.2 µg/mL (≈ 135 µM)

Structure (SMILES): CC(C)C[C@H](NC(=O)OC1CCCCC1)C(=O)N[C@@H](C[C@H]1CCNC1=O)C(O)S(=O)(=O)O (stereo partly drawn)
- IC50 [8]: 150 nM
- IC50 (SARS-CoV-2): 3500 nM
- EC50 [9]: 80 nM
- EC50 [10]: 70 nM
- IC50 (SARS-CoV): 3800 nM
- EC50 (Murine hepatitis virus): 80 nM

Structure (SMILES): CC(=O)NCCNc1nc(NCC(N)=O)nc(N(Cc2ccccc2)Cc2ccccc2)n1
- MIC (Pseudomonas aeruginosa): > 128 µg/mL
- MIC (Staphylococcus aureus [1]): > 128 µg/mL
- MIC (Escherichia coli [2]): > 128 µg/mL
- MIC [3]: > 128 µg/mL

Structure (SMILES): CCCCCCCCCCCCNC(=O)[C@@H](N)c1ccccc1
- MIC (Staphylococcus aureus [4]): 15.6 µg/mL (≈ 49 µM)
- MIC (Staphylococcus aureus [5]): 7.8 µg/mL (≈ 24.5 µM)
- MIC (Salmonella enterica): 3.9 µg/mL (≈ 12.2 µM)
- MIC (Escherichia coli [6]): 2.5 µg/mL (≈ 7.85 µM)
- MIC (Bacillus subtilis [7]): 15.6 µg/mL (≈ 49 µM)

Structure (SMILES): CCCCCCCCCCCCNC(=O)[C@@H](N)CC(C)C
- MIC (Staphylococcus aureus [4]): 6.25 µg/mL (≈ 20.9 µM)
- MIC (Staphylococcus aureus [5]): 3.3 µg/mL (≈ 11.1 µM)
- MIC (Salmonella enterica): 4.17 µg/mL (≈ 14 µM)
- MIC (Escherichia coli [6]): 2.5 µg/mL (≈ 8.37 µM)
- MIC (Bacillus subtilis [7]): 10 µg/mL (≈ 33.5 µM)

Structure (SMILES): Cc1oc2c(N)cccc2c1CN(C)C(=O)/C=C/c1cnc2c(c1)N[C@H](C)[C@H](N)C(=O)N2
- MIC (Staphylococcus aureus [11]): ≤ 4 µg/mL
- MIC (Escherichia coli [12]): ≤ 4 µg/mL
- MIC (Acinetobacter baumannii): ≤ 4 µg/mL
- IC50 [13]: < 10 nM

Structure (SMILES): CCCCCCNC(=O)[C@@H](N)Cc1ccccc1
- MIC (Staphylococcus aureus [4]): 312 µg/mL (≈ 1260 µM)
- MIC (Staphylococcus aureus [5]): 624 µg/mL (≈ 2510 µM)
- MIC (Salmonella enterica): 156 µg/mL (≈ 628 µM)
- MIC (Escherichia coli [6]): 156 µg/mL (≈ 628 µM)
- MIC (Bacillus subtilis [7]): 156 µg/mL (≈ 628 µM)

Structure (SMILES): COc1c(CCc2ccc(NC(=O)[C@H](CC#N)NC(=O)c3ccc(NC(=O)/C(C)=C/c4ccc(O)cc4)cc3)cc2)ccc(C(=O)Nc2ccc(C(=O)O)c(O)c2OC)c1O
- MIC (Mycolicibacterium phlei): 1 µg/mL (≈ 1.21 µM)
- MIC (Salmonella typhimurium): 0.25 µg/mL (≈ 0.302 µM)
- MIC (Bacillus subtilis [14]): 0.063 µg/mL (≈ 0.0761 µM)
- MIC (Escherichia coli [15]): 0.25 µg/mL (≈ 0.302 µM)

Structure (SMILES): CC(C)C[C@H](NC(=O)OC1CCCCC1)C(=O)N[C@H](C=O)C[C@H]1CCNC1=O
- IC50 [8]: 350 nM
- IC50 (SARS-CoV-2): 3700 nM
- EC50 [10]: 90 nM
- IC50 (SARS-CoV): 3900 nM
- EC50 (Murine hepatitis virus): 120 nM

Structure (SMILES): COc1c(C#Cc2ccc(NC(=O)[C@H](CC#N)NC(=O)c3ccc(NC(=O)/C(C)=C/c4ccc(O)cc4)cc3)cc2)ccc(C(=O)Nc2ccc(C(=O)O)c(O)c2OC)c1O
- MIC (Mycolicibacterium phlei): 0.5 µg/mL (≈ 0.607 µM)
- MIC (Salmonella typhimurium): ≤ 0.016 µg/mL
- MIC (Bacillus subtilis [14]): 0.063 µg/mL (≈ 0.0765 µM)
- MIC (Escherichia coli [15]): < 0.063 µg/mL

Structure (SMILES): CCCCCCCCCCCCNC(=O)[C@@H](N)Cc1ccccc1
- MIC (Staphylococcus aureus [4]): 16.6 µg/mL (≈ 49.9 µM)
- MIC (Staphylococcus aureus [5]): 2.5 µg/mL (≈ 7.52 µM)
- MIC (Salmonella enterica): 5 µg/mL (≈ 15 µM)
- MIC (Escherichia coli [6]): 5 µg/mL (≈ 15 µM)
- MIC (Bacillus subtilis [7]): 10 µg/mL (≈ 30.1 µM)

Structure (SMILES): Cc1c(CN(C)C(=O)/C=C/c2cnc3c(c2)N[C@H](C)[C@H](N)C(=O)N3)oc2ccccc12
- MIC (Staphylococcus aureus [11]): ≤ 4 µg/mL
- MIC (Escherichia coli [12]): ≤ 4 µg/mL
- MIC (Acinetobacter baumannii): ≤ 4 µg/mL
- IC50 [13]: < 10 nM

Structure (SMILES): C#Cc1cccc(NC(=O)[C@@H](N)C(C)CC)c1 (stereo partly drawn)
- MIC (Staphylococcus aureus [4]): 62.4 µg/mL (≈ 271 µM)
- MIC (Staphylococcus aureus [5]): 31.2 µg/mL (≈ 135 µM)
- MIC (Salmonella enterica): 15.6 µg/mL (≈ 67.7 µM)
- MIC (Escherichia coli [6]): 15.6 µg/mL (≈ 67.7 µM)

Structure (SMILES): CCCCNC(=O)[C@@H](N)Cc1ccccc1
- MIC (Staphylococcus aureus [4]): 624 µg/mL (≈ 2830 µM)
- MIC (Staphylococcus aureus [5]): 1250 µg/mL (≈ 5670 µM)
- MIC (Salmonella enterica): 416 µg/mL (≈ 1890 µM)
- MIC (Bacillus subtilis [7]): 416 µg/mL (≈ 1890 µM)

Structure (SMILES): COc1c(NC(=O)c2ccc(NC(=O)c3ccc(NC(=O)[C@H](Cc4nn[nH]n4)NC(=O)c4ccc(NC(=O)/C(C)=C/c5ccc(O)cc5)cc4)cc3)c(OC)c2O)ccc(C(=O)O)c1O
- MIC (Mycolicibacterium phlei): 2 µg/mL (≈ 2.26 µM)
- MIC (Salmonella typhimurium): 0.063 µg/mL (≈ 0.0711 µM)
- MIC (Bacillus subtilis [14]): 0.25 µg/mL (≈ 0.282 µM)
- MIC (Escherichia coli [15]): 0.063 µg/mL (≈ 0.0711 µM)

Structure (SMILES): CC(=O)N[C@@H](CCCCN)C(=O)N[C@@H](Cc1c[nH]c2ccccc12)C(=O)N[C@@H](CCCCN)C(=O)N[C@@H](Cc1c[nH]c2ccccc12)C(N)=O (Ac-KWKW-NH2)
- MIC (Pseudomonas aeruginosa): > 128 µg/mL
- MIC (Staphylococcus aureus [1]): > 128 µg/mL
- MIC (Escherichia coli [2]): > 128 µg/mL
- MIC [3]: > 128 µg/mL

Structure (SMILES): CC(=O)N[C@@H](CCCCN)C(=O)N[C@@H](Cc1c[nH]c2ccccc12)C(=O)N[C@@H](CCCCN)C(N)=O (Ac-Lys-Trp-Lys-NH2)
- MIC (Pseudomonas aeruginosa): 128 µg/mL (≈ 255 µM)
- MIC (Staphylococcus aureus [1]): > 128 µg/mL
- MIC (Escherichia coli [2]): 64 µg/mL (≈ 128 µM)
- MIC [3]: > 128 µg/mL

Structure (SMILES): CC(=O)N[C@@H](CCCCN)C(=O)N[C@@H](Cc1c[nH]c2ccccc12)C(N)=O (Ac-Lys-Trp-NH2)
- MIC (Pseudomonas aeruginosa): 128 µg/mL (≈ 343 µM)
- MIC (Staphylococcus aureus [1]): > 128 µg/mL
- MIC (Escherichia coli [2]): 128 µg/mL (≈ 343 µM)
- MIC [3]: > 128 µg/mL

Structure (SMILES): CC(=O)N[C@@H](Cc1c[nH]c2ccccc12)C(=O)N[C@@H](CCCCN)C(=O)N[C@@H](Cc1c[nH]c2ccccc12)C(N)=O (Ac-Trp-Lys-Trp-NH2)
- MIC (Pseudomonas aeruginosa): > 128 µg/mL
- MIC (Staphylococcus aureus [1]): > 128 µg/mL
- MIC (Escherichia coli [2]): > 128 µg/mL
- MIC [3]: > 128 µg/mL
